Type in all cases: in vivo, human
Data set [1] in a line: Blood lactate after treadmill exercise (Heartscare C1 lactate monitoring system). The conditions noted are these: person; treadmill 5 miles per hour for 10 minutes, 60 minutes after ingesting 10 g; without supplement 8.1 mmol/L. As for the experimental part: A recreationally active person used the treadmill at 5 miles per hour for 10 minutes and measured their lactate levels using a Heartscare C1 lactate monitoring system. Their blood lactate measured at 8.1 mmol/L. After a two-day washout period, they repeated the same treadmill exercise 60 minutes after ingesting 10 g creatine carbonate. Their blood lactate measured at 7.1 mmol/L. Thus, even without creatine loading, creatine carbonate can reduce lactate production from exercise, as measured by blood lactate level.

The nature of data set [2]: Gastrointestinal tolerability after oral creatine supplementation in a subject. To be noted: for gastrointestinal side effects: 20 g once per day with 1000 ml of water, monohydrate for 5 consecutive days, carbonate after 14 days washout. On the procedure: A subject, trained, was administered 5 g creatine carbonate and monitored for any gastrointestinal tract symptoms. […] In contrast, the subject would develop a bloated stomach with creatine supplements currently on the market.
(§1) At the end on day 5, the subject was able to perform 8 knee extensions at 80% maximum weight (200 lbs.). This was 2 more than their usual 6 extensions with this weight (control). So, creatine supplementation with creatine monohydrate improved the subject's physical performance though with gastrointestinal side effects.
(§2) After a washout period of 14 days, where the subject ingested no creatine supplements, they began a second period of creatine supplementation with 20 g creatine carbonate, also taken once per day with 1000 ml water. […] At the end of the creatine supplementation with creatine carbonate, the subject again evaluated the effect of creatine supplementation with knee extension exercises at 80% maximum weight (200 lbs.). They performed 10 extensions, which was better than either the control or after 5 days of creatine monohydrate supplementation.

Data set [3] in a line: Knee extension exercise at 80% maximum weight after creatine supplementation. To be noted: at end of supplementation, 20 g once per day with 1000 ml water; usual 6 extensions (control).
From the text: as §1, §2

Take `CN(CC(=O)O)C(=N)N.O=C(O)O` [creatine carbonate]: the blood lactate in data set [1] is 7.1 mmol/L. In data set [2], the gastrointestinal side effects entry is listed as “Besides light belching, no other gastrointestinal side effects were noted”. In addition, the gastrointestinal tract symptoms result in data set [2] (subject, trained, 5 g administered) was “did not experience any unwanted gastrointestinal tract issues except a little belching”. Besides, the “onset of gastrointestinal distress” value in data set [2] (up to 20 grams orally administered to subjects) was “without onset of gastrointestinal distress”. Moreover, the “knee extensions performed at 80% maximum weight (200 lbs.)” value in data set [3] is 10.

`CN(CC(=O)O)C(=N)N.O` [creatine monohydrate, reference compound]: in data set [2], the gastrointestinal side effects entry is “gastrointestinal disturbances, such as diarrhea and stomach bloating, occurred”. Also, the “knee extensions performed at 80% maximum weight (200 lbs.)” value in data set [3] was determined as 8.

The record behind these values is patent US20250019344A1, “CREATINE CARBONATE AND METHODS OF PRODUCTION AND USES” (ThermoLife International, LLC, priority 2023, published 2025).
